SMILES strings stand for the structures.

One assay addresses PI3K-β (p110β/p85α) (Homo sapiens (Human), UniProt P42338). The assay is described as follows: Fluorescent determination of PI3K enzyme activity (Transcreener KINASE Assay), PI3K-β.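 As to all read-outs here: Far-red fluorescence polarization immunoassay detecting ADP produced by the kinase, 80 min enzyme reaction at room temperature, inhibition relative to ADP formed in 2% DMSO control wells.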 The assay is classed as biochemical. Particulars: for PI3K-β IH%: inhibition rate at 1 μM.
The target in the next assay is PI3K-γ (p110γ) (Homo sapiens (Human), UniProt P48736). The assay is described as follows: Fluorescent determination of PI3K enzyme activity (Transcreener KINASE Assay), PI3K-γ.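 Also: p110γ enzyme reaction for 80 min at room temperature, ADP formed measured by far-red competitive fluorescence polarization immunoassay, inhibition relative to wells with 2% DMSO only.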 The assay is classed as biochemical. The conditions noted are these: inhibition rate at 1 μM.
Chain of PI3K-γ (p110γ) (P48736 whole entry, species assumed): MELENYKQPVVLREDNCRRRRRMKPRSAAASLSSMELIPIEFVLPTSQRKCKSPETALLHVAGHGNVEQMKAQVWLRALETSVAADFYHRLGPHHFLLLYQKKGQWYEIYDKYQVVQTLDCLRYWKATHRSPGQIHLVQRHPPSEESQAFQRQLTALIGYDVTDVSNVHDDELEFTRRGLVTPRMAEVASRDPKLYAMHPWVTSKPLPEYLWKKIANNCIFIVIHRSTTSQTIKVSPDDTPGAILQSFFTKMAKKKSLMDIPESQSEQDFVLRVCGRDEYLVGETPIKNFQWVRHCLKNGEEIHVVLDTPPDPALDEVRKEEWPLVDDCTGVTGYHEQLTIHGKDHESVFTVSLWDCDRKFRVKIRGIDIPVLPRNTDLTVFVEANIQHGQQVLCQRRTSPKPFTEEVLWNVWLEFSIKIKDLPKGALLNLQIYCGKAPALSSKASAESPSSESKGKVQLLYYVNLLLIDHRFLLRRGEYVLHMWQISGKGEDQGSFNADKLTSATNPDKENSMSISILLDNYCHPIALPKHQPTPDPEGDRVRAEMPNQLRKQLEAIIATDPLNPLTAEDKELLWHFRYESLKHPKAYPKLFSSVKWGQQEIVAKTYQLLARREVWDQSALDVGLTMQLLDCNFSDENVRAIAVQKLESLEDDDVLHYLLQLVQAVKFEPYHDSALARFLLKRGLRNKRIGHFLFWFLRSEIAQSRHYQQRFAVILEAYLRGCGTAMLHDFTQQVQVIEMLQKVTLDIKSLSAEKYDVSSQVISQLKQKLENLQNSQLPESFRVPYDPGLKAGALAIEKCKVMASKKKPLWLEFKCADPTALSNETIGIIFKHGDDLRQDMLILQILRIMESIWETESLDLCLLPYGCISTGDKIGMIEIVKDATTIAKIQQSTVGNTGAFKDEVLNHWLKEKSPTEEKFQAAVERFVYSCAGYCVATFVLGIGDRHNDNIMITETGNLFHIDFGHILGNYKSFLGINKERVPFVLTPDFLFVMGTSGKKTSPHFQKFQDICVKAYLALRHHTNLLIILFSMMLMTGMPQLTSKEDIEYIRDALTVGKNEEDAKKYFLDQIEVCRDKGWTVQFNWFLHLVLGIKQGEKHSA

Chain of PI3K-β (p110β/p85α) (P42338 whole entry, species assumed): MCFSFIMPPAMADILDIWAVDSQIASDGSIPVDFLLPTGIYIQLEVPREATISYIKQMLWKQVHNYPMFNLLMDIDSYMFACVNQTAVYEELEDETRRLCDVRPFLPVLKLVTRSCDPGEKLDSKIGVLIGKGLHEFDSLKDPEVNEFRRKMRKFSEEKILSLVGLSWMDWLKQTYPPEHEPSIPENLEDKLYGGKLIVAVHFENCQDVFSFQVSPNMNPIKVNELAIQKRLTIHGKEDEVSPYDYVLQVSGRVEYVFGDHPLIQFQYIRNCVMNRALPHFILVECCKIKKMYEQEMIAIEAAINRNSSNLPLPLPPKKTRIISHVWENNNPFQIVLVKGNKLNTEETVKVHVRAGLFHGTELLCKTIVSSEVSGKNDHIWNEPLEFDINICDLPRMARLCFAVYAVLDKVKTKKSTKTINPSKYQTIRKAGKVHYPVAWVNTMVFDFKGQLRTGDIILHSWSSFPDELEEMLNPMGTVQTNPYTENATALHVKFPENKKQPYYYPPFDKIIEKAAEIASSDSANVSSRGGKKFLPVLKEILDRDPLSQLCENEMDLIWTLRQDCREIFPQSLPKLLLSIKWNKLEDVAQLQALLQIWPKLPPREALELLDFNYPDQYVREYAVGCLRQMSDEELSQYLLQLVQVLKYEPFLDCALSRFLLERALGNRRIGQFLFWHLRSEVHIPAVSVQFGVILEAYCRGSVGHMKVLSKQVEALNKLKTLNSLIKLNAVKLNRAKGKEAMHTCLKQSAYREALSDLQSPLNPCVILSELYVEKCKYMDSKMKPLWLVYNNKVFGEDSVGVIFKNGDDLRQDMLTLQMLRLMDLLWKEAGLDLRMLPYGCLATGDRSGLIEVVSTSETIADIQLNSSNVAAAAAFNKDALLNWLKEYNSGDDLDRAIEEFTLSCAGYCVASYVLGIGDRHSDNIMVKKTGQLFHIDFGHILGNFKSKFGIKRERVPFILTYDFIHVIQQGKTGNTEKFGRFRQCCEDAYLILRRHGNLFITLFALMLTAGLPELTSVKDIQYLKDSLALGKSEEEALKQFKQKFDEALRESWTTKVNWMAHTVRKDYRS
Chain of PI3K-β (p110β/p85α) (P27986 whole entry partner, species assumed): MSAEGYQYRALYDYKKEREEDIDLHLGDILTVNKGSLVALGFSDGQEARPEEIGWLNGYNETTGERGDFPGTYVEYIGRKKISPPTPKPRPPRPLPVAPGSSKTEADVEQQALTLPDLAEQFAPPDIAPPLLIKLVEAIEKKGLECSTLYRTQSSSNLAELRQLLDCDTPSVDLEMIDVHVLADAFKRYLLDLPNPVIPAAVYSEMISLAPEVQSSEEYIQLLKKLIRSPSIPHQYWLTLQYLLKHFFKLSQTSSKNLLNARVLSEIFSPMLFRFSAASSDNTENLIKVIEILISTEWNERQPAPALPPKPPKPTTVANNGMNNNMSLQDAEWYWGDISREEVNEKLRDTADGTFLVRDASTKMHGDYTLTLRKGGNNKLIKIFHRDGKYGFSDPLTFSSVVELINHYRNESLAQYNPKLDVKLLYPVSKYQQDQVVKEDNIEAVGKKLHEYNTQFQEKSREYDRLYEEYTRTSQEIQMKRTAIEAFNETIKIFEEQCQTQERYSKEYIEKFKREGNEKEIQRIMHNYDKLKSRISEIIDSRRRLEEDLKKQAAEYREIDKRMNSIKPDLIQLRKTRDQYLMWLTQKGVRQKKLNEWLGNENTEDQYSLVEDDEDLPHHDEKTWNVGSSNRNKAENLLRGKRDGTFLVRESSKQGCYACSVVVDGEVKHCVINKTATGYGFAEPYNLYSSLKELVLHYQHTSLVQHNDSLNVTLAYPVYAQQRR
Procedure for PI3K-β (p110β/p85α): (§1) PI3K kinases including p110α/p85α and p110γ were purchased from Invitrogen, p110δ/p85α and p110β/p85α were from Millipore.
(§2) It is a universal, homogenous, high throughput screening (HTS) technology using a far-red, competitive fluorescence polarization immunoassay based on the defection of ADP to monitor the activity of enzymes that catalyze group transfer reactions. […] The reaction mixture was added into desired wells of a 96-well plate. The plate was sealed and incubated for 80 min at room temperature. • 2) Next, 25 uL ADP detection mix was added into each well. The plate was sealed again and incubated for 60 min at room temperature. Then fluorescence polarization was measured by Tecan Infinite F500 Reader.
(§3) Data was analyzed and IC50 values were generated using the add-in software for Microsoft Excel, Xlfit™ (version 5.3).
(§4) Inhibition rates were calculated as follow: IH %=(ADP amount under 2% DMSO well−ADP amount under test compound well)/ADP amount under 2% DMSO well×100%.
Procedure for PI3K-γ (p110γ): as §1, §2, §3, §4

`CC(Nc1ncnc(N)c1C#N)c1cc2nccn2nc1-c1ccccc1` (centres unmarked) [Compound 1, 4-amino-6-((1-(6-phenylimidazo[1,2-b]pyridazin-7-yl)ethyl)amino)pyrimidine-5-carbonitrile]: the “PI3K-β IH%” value on PI3K-β (p110β/p85α) was 28.1%. Further, the “PI3K-γ IH%” value at PI3K-γ (p110γ) came to 16.1%.
On to `CC(Nc1ncnc2[nH]cnc12)c1cc2ncc(Cl)n2nc1-c1ccccc1` (single isomer, unassigned) [Compound 11], for which the “PI3K-β IH%” value on PI3K-β (p110β/p85α) is given as 55.7%.
On the same count and under the same terms, under `Cc1noc(-c2c(N)ncnc2N[C@@H](C)c2cc3ncc(Cl)n3nc2-c2ccccc2)n1` [Compound 82, (S)-N^4-(1-(3-chloro-6-phenylimidazo[1,2-b]pyridazin-7-yl)ethyl)-5-(3-methyl-1,2,4-oxadiazol-5-yl)pyrimidine-4,6-diamine] stands 55.2%; under `C[C@H](Nc1ncnc2[nH]cnc12)c1cc2ncc(Cl)n2nc1-c1cccc(F)c1` [Compound 16], 27.5%.
Same read-out and setting: under `CCC(Nc1ncnc2[nH]cnc12)c1cc2ncc(Cl)n2nc1-c1ccccc1F` (centres unmarked) [Compound 25] stands 22.8%.
On to `CC(Nc1ncnc2[nH]cc(C#N)c12)c1cc2ncc(Cl)n2nc1-c1ccccc1` (single isomer, unassigned) [Compound 9], for which the “PI3K-γ IH%” value at PI3K-γ (p110γ) is recorded as −1.4%.
As to `Cc1cn2nc(-c3ccccc3)c([C@H](C)Nc3ncnc(N)c3C#N)cc2n1` [Compound 58], the “PI3K-β IH%” value on PI3K-β (p110β/p85α) is 20.5%. In addition, at PI3K-γ (p110γ), the “PI3K-γ IH%” value was 20.2%.
On the same counts, the results for `CC[C@@H](Nc1ncnc2[nH]cnc12)c1cc2ncc(Cl)n2nc1-c1cccc(F)c1` [Compound 44] are 18.8% and 36.0%.
Regarding `C[C@H](Nc1ncnc(N)c1C(N)=O)c1cc2ncc(Cl)n2nc1-c1ccccc1` [Compound 53, (S)-4-amino-6-((1-(3-chloro-6-phenylimidazo[1,2-b]pyridazin-7-yl)ethyl)amino)pyrimidine-5-carboxamide], the “PI3K-β IH%” value at PI3K-β (p110β/p85α) is 30.5%. Moreover, the “PI3K-γ IH%” value at PI3K-γ (p110γ) stood at 34.3%.
As for `C[C@H](Nc1nc[n+]([O-])c(N)c1C#N)c1cc2ncc(Cl)n2nc1-c1ccccc1` [Compound 51, (S)-6-amino-4-((1-(3-chloro-6-phenylimidazo[1,2-b]pyridazin-7-yl)ethyl)amino)-5-cyanopyrimidine 1-oxide], the “PI3K-β IH%” value at PI3K-β (p110β/p85α) is −15.5%. Besides, on PI3K-γ (p110γ), the “PI3K-γ IH%” value stood at 36.7%.
With `Cc1nc(N)c(C#N)c(N[C@@H](C)c2cc3ncc(Cl)n3nc2-c2ccccc2)n1` [Compound 32], the “PI3K-β IH%” value at PI3K-β (p110β/p85α) was 23.8%.
For the compound `C[C@H](Nc1ncnc(N)c1C#N)c1cc2ncc(Cl)n2nc1-c1ccc2ccccc2c1` [Compound 71], the “PI3K-β IH%” value at PI3K-β (p110β/p85α) is 35.2%. In addition, at PI3K-γ (p110γ), the “PI3K-γ IH%” value amounted to 32.6%.
As to `CCC(Nc1ncnc2[nH]cnc12)c1cc2ncc(Cl)n2nc1-c1ccccc1` (centres unmarked) [Compound 18], at PI3K-β (p110β/p85α), the “PI3K-β IH%” value is given as 42%.
For the compound `C[C@@H](c1cc2ncc(Cl)n2nc1-c1ccccc1)n1cnc2c(N)ncnc21` [Compound 20, (S)-9-(1-(3-chloro-6-phenylimidazo[1,2-b]pyridazin-7-yl)ethyl)-9H-purin-6-amine], on PI3K-β (p110β/p85α), the “PI3K-β IH%” value came out at 17.4%. Moreover, the “PI3K-γ IH%” value on PI3K-γ (p110γ) is 43.1%.
As for `C[C@H](Nc1ncnc(N)c1C#N)c1cc2ncc(Cl)n2nc1-c1ccc2scnc2c1` [Compound 74], the “PI3K-β IH%” value at PI3K-β (p110β/p85α) came to 49.4%. In addition, the “PI3K-γ IH%” value at PI3K-γ (p110γ) is listed as 40.8%.
As for `C[C@H](Nc1ncnc(N)c1C#N)c1cc2ncc(Cl)n2nc1-c1ccc(F)c(F)c1` [Compound 63], the “PI3K-β IH%” value at PI3K-β (p110β/p85α) was found to be 48.1%.
For `C[C@H](Nc1ncnc(N)c1C#N)c1cc2ncc(Cl)n2nc1-c1ccc2cccnc2c1` [Compound 61], on PI3K-β (p110β/p85α), the “PI3K-β IH%” value is listed as 24.4%. The “PI3K-γ IH%” value at PI3K-γ (p110γ) is 26.5%.
As to `CNc1ncnc(N[C@@H](C)c2cc3ncc(Cl)n3nc2-c2ccccc2)c1C#N` [Compound 33, (S)-4-((1-(3-chloro-6-phenylimidazo[1,2-b]pyridazin-7-yl)ethyl)amino)-6-(methylamino)pyrimidine-5-carbonitrile], the “PI3K-β IH%” value at PI3K-β (p110β/p85α) was 2.2%. Besides, at PI3K-γ (p110γ), the “PI3K-γ IH%” value is given as −6.9%.
On the same counts, the results for `C[C@H](Nc1ncnc(N)c1-c1cccc(F)c1)c1cc2ncc(Cl)n2nc1-c1ccccc1` [Compound 37, (S)-N^4-(1-(3-chloro-6-phenylimidazo[1,2-b]pyridazin-7-yl)ethyl)-5-(3-fluorophenyl)pyrimidine-4,6-diamine] are −0.4% and 27.5%.
On the same counts, the results for `CCC(Nc1ncnc(N)c1C#N)c1cc2ncc(Cl)n2nc1-c1cccc(F)c1` (centres unmarked) [Compound 24] are 46.6% and 44.5%.
For `C[C@@H](Nc1ncnc(N)c1C#N)c1cc2ncc(Cl)n2nc1-c1ccccc1` [Compound 3, (R)-4-amino-6-((1-(3-chloro-6-phenylimidazo[1,2-b]pyridazin-7-yl)ethyl)amino)pyrimidine-5-carbonitrile], the “PI3K-γ IH%” value on PI3K-γ (p110γ) came out at 6.9%.
For `C[C@H](Nc1ncnc(N)c1-c1cnn(C)c1)c1cc2ncc(Cl)n2nc1-c1ccccc1` [Compound 57], at PI3K-β (p110β/p85α), the “PI3K-β IH%” value is listed as 6.3%. The “PI3K-γ IH%” value on PI3K-γ (p110γ) was 30.3%.
On the same counts, the results for `C[C@H](Nc1ncnc(N)c1C(=O)O)c1cc2ncc(Cl)n2nc1-c1ccccc1` [Compound 52, (S)-4-amino-6-((1-(3-chloro-6-phenylimidazo[1,2-b]pyridazin-7-yl)ethyl)amino)pyrimidine-5-carboxylic acid] are −6.3% and −26.1%.
Take `C[C@H](Nc1ncnc(N)c1C#N)c1cc2ncc(Cl)n2nc1-c1ccc(Cl)c(F)c1` [Compound 64]: at PI3K-β (p110β/p85α), the “PI3K-β IH%” value amounted to 44.1%.
`COc1ccc(-c2c(N)ncnc2N[C@@H](C)c2cc3ncc(Cl)n3nc2-c2ccccc2)cn1` [Compound 39]: the “PI3K-β IH%” value on PI3K-β (p110β/p85α) was −4.4%. The “PI3K-γ IH%” value on PI3K-γ (p110γ) was 28.1%.
As for `C[C@@H](c1cc2ncc(Cl)n2nc1-c1ccccc1)n1ccc2c(N)ncnc21` [Compound 27, (S)-7-(1-(3-chloro-6-phenylimidazo[1,2-b]pyridazin-7-yl)ethyl)-7H-pyrrolo[2,3-d]pyrimidin-4-amine], the “PI3K-β IH%” value at PI3K-β (p110β/p85α) was determined as 9.5%. Also, the “PI3K-γ IH%” value on PI3K-γ (p110γ) is recorded as 24.9%.
On the same counts, the results for `C[C@H](Nc1ncnc(N)c1C#N)c1cc2ncc(Cl)n2nc1-c1ccncc1` [Compound 73] are 60.8% and 62.8%.
On to `C[C@H](Nc1ncnc(N)c1C#N)c1cc2ncc(Cl)n2nc1-c1cccc(F)c1` [Compound 15], for which the “PI3K-β IH%” value on PI3K-β (p110β/p85α) amounted to 59%.
In the case of `CC[C@H](Nc1ncnc2[nH]cnc12)c1cc2ncc(Cl)n2nc1-c1cccc(F)c1` [Compound 47], at PI3K-β (p110β/p85α), the “PI3K-β IH%” value is 32.2%. Moreover, the “PI3K-γ IH%” value on PI3K-γ (p110γ) worked out at 55.2%.
As for `CC[C@H](Nc1ncnc(N)c1C#N)c1cc2ncc(Cl)n2nc1-c1ccccc1` [Compound 6, (S)-4-amino-6-((1-(3-chloro-6-phenylimidazo[1,2-b]pyridazin-7-yl)propyl)amino)pyrimidine-5-carbonitrile], the “PI3K-γ IH%” value at PI3K-γ (p110γ) is reported as 4.1%.
On the same count and under the same terms, under `CCC(Nc1ncnc(N)c1C#N)c1cc2ncc(Cl)n2nc1-c1ccccn1` (centres unmarked) [Compound 29] stands 35%.
Turning to `C[C@H](Nc1ncnc(N)c1C#N)c1cc2ncc(Cl)n2nc1-c1ccccc1O` [Compound 69, (S)-4-amino-6-((1-(3-chloro-6-(2-hydroxyphenyl)imidazo[1,2-b]pyridazin-7-yl)ethyl)amino)pyrimidine-5-carbonitrile], at PI3K-β (p110β/p85α), the IC50 amounted to 133 nM.

As usually defined, the IC50 is the midpoint of a concentration-inhibition curve.

The values are drawn from patent publication US10611777B2, “Imidazopyridazine compounds and their use” (HUTCHISON MEDIPHARMA LIMITED, priority 2014, dated 2020).
